Results taken from ChEMBL document CHEMBL1145381, “Synthesis and antiviral property of allophenylnorstatine-based HIV protease inhibitors incorporating D-cysteine derivatives as P2/P3 moieties” (Bioorg Med Chem Lett, 2007).
Values belong to the compound of their own block, whether it stands above or below them.

Key:
[1] = Cytotoxicity against MT4 cells by MTT assay; assay type: cell-based; conditions: human, read-out: LC50 (the source's name)
[2] = Selectivity index, Ratio of LC50 for MT4 cells to EC50 for HIV1 3B; assay type: functional
[3] = tested on: Human immunodeficiency virus 1; assay: Antiviral activity against nelfinavir-resistant HIV1 NL432; assay type: functional, organism-based; conditions: Human immunodeficiency virus 1, NL432
[4] = tested on: Human immunodeficiency virus 1; assay: Antiviral activity against ritonavir and nelfinavir-resistant HIV1 NL432; assay type: functional, organism-based; conditions: Human immunodeficiency virus 1, NL432
[5] = tested on: Human immunodeficiency virus 1; assay: Antiviral activity against HIV1 NL432; assay type: functional, organism-based; conditions: Human immunodeficiency virus 1, NL432
[6] = tested on: Human immunodeficiency virus 1; assay: Antiviral activity against ritonavir-resistant HIV1 NL432; assay type: functional, organism-based; conditions: Human immunodeficiency virus 1, NL432
[7] = tested on: Human immunodeficiency virus 1; assay: Antiviral activity against HIV1 3B in MT4 cells by MTT assay; assay type: functional, organism-based; conditions: Human immunodeficiency virus 1, 3B
[8] = tested on: Human immunodeficiency virus; assay: Inhibition of HIV protease at 1 nM
[9] = Inhibition of HIV protease; parameters: species or system Human immunodeficiency virus

SMILES: Cc1cc(C)c(NC(CSc2cccc3ccccc23)C(=O)N[C@@H](Cc2ccccc2)[C@H](O)C(=O)N2CSC(C)(C)[C@H]2C(=O)NCc2ccccc2C)c(C)c1 (stereo partly specified)
- CC50 [1]: 4400 nM
- Selectivity index [2]: 688
- EC50 [3]: 0.67 nM
- EC50 [4]: 13 nM
- EC50 [5]: 9.3 nM
- EC50 [6]: 17 nM
- EC50 [7]: 6.4 nM
- inhibition [8]: 74%

- IC50 [9]: 0.09 nM
- inhibition [8]: 98%
SMILES: Cc1ccccc1CNC(=O)[C@H]1N(C(=O)[C@@H](O)[C@H](Cc2ccccc2)NC(=O)C(CS(=O)(=O)c2ccc3ccccc3c2)NS(C)(=O)=O)CSC1(C)C (stereo partly specified)

SMILES: COc1ccc(CS(=O)(=O)C[C@@H](Nc2c(C)cc(C)cc2C)C(=O)N[C@@H](Cc2ccccc2)[C@H](O)C(=O)N2CSC(C)(C)[C@H]2C(=O)NCc2ccccc2C)cc1
- CC50 [1]: > 26000 nM
- Selectivity index [2]: >128
- EC50 [7]: 203 nM
- inhibition [8]: 66%

SMILES: CC(=O)NC(CSc1ccc2ccccc2c1)C(=O)N[C@@H](Cc1ccccc1)[C@H](O)C(=O)N1CSC(C)(C)[C@H]1C(=O)NCc1ccccc1C (stereo partly specified)
- CC50 [1]: 8300 nM
- Selectivity index [2]: 461
- EC50 [3]: 7.2 nM
- EC50 [4]: 32 nM
- EC50 [5]: 17 nM
- EC50 [6]: 65 nM
- EC50 [7]: 18 nM
- inhibition [8]: 53%

SMILES: CC(C)c1nc(CN(C)C(=O)N[C@H](C(=O)N[C@@H](Cc2ccccc2)C[C@H](O)[C@H](Cc2ccccc2)NC(=O)OCc2cncs2)C(C)C)cs1 [RITONAVIR]
- EC50 [4]: 162 nM
- EC50 [5]: 80 nM
- EC50 [6]: 220 nM
- EC50 [7]: 36 nM
- inhibition [8]: 90%

SMILES: CC(=O)NC(CS(=O)(=O)c1ccc2ccccc2c1)C(=O)N[C@@H](Cc1ccccc1)[C@H](O)C(=O)N1CSC(C)(C)[C@H]1C(=O)NCc1ccccc1C (stereo partly specified)
- CC50 [1]: 16000 nM
- Selectivity index [2]: 571
- IC50 [9]: 0.086 nM
- EC50 [7]: 28 nM
- inhibition [8]: 96%

SMILES: COc1ccc(CS(=O)(=O)C[C@@H](NC(C)=O)C(=O)N[C@@H](Cc2ccccc2)[C@H](O)C(=O)N2CSC(C)(C)[C@H]2C(=O)NCc2ccccc2C)cc1
- CC50 [1]: > 27000 nM
- Selectivity index [2]: >265
- EC50 [7]: 102 nM
- inhibition [8]: 59%

- IC50 [9]: 0.083 nM
- inhibition [8]: 97%
SMILES: Cc1ccccc1CNC(=O)[C@H]1N(C(=O)[C@@H](O)[C@H](Cc2ccccc2)NC(=O)C(CS(=O)(=O)c2cccc3ccccc23)NS(C)(=O)=O)CSC1(C)C (stereo partly specified)

SMILES: CSC[C@H](NC(=O)COc1cccc2cnccc12)C(=O)N[C@@H](Cc1ccccc1)[C@H](O)C(=O)N1CSC[C@H]1C(=O)NC(C)(C)C
- CC50 [1]: > 30000 nM
- Selectivity index [2]: >1363
- EC50 [7]: 22 nM
- inhibition [8]: 40%

SMILES: CC(=O)NC(CS(=O)(=O)c1cccc2ccccc12)C(=O)N[C@@H](Cc1ccccc1)[C@H](O)C(=O)N1CSC(C)(C)[C@H]1C(=O)NCc1ccccc1C (stereo partly specified)
- CC50 [1]: 16000 nM
- Selectivity index [2]: 400
- IC50 [9]: 0.09 nM
- EC50 [7]: 40 nM
- inhibition [8]: 97%

- IC50 [9]: 0.34 nM
SMILES: CC(C)(C)NC(=O)c1ccccc1C[C@H](O)[C@@H](Cc1ccccc1)NC(=O)[C@H](CS(=O)(=O)c1ccc(Cl)cc1)NS(C)(=O)=O

SMILES: COc1ccc(CSC[C@@H](NC(C)=O)C(=O)N[C@@H](Cc2ccccc2)[C@H](O)C(=O)N2CSC(C)(C)[C@H]2C(=O)NCc2ccccc2C)cc1
- CC50 [1]: 17000 nM
- Selectivity index [2]: 1308
- IC50 [9]: 0.18 nM
- EC50 [3]: 2.4 nM
- EC50 [4]: 14 nM
- EC50 [5]: 17 nM
- EC50 [6]: 18 nM
- EC50 [7]: 13 nM
- inhibition [8]: 87%

SMILES: Cc1cc(C)c(NC(CSc2ccc3ccccc3c2)C(=O)N[C@@H](Cc2ccccc2)[C@H](O)C(=O)N2CSC(C)(C)[C@H]2C(=O)NCc2ccccc2C)c(C)c1 (stereo partly specified)
- CC50 [1]: 6100 nM
- Selectivity index [2]: 469
- EC50 [3]: 0.8 nM
- EC50 [4]: 23 nM
- EC50 [5]: 17 nM
- EC50 [6]: 31 nM
- EC50 [7]: 13 nM
- inhibition [8]: 67%

SMILES: CC(=O)NC(CSc1cccc2ccccc12)C(=O)N[C@@H](Cc1ccccc1)[C@H](O)C(=O)N1CSC(C)(C)[C@H]1C(=O)NCc1ccccc1C (stereo partly specified)
- CC50 [1]: 8000 nM
- Selectivity index [2]: 471
- EC50 [3]: 6.3 nM
- EC50 [4]: 52 nM
- EC50 [5]: 70 nM
- EC50 [6]: 18 nM
- EC50 [7]: 13 nM
- inhibition [8]: 68%

SMILES: Cc1c(O)cccc1C(=O)N[C@@H](CSc1ccccc1)[C@H](O)CN1C[C@H]2CCCC[C@H]2C[C@H]1C(=O)NC(C)(C)C
- CC50 [1]: 11000 nM
- Selectivity index [2]: 688
- EC50 [3]: 308 nM
- EC50 [4]: 67 nM
- EC50 [5]: 25 nM
- EC50 [6]: 28 nM
- EC50 [7]: 16 nM
- inhibition [8]: 29%
